Measurements taken from patent US20170190705A1, “Compositions and Methods for Inhibiting BMP” (THE BRIGHAM AND WOMAN'S HOSPITAL, INC., priority 2014, published 2017).

Key:
Format in all cases: biochemical
PIM-2 = PIM-2 (Homo sapiens, UniProt Q9P1W9); experiment: Kinome profiling PIM-2; conditions: read-out: Inhibitory activity PIM-2; for inhibition at 0.1 µM: 100 nM
Procedure: (§1) . The kinome-wide selectivity was determined following the methods previously reported by Mohedas et al., ACS Chem Biol 2013, 8, 1291-1302 and Sanvitale et al., PLoS One 2013, 8, e62721.

CDK6/cyclinD3 = CDK6/cyclinD3 (Homo sapiens, UniProt Q00534); experiment: Kinome profiling CDK6/cyclinD3; conditions: read-out: Inhibitory activity CDK6/cyclinD3; for inhibition at 0.1 µM: 100 nM
Sequence of CDK6/cyclinD3 (Q00534 whole entry): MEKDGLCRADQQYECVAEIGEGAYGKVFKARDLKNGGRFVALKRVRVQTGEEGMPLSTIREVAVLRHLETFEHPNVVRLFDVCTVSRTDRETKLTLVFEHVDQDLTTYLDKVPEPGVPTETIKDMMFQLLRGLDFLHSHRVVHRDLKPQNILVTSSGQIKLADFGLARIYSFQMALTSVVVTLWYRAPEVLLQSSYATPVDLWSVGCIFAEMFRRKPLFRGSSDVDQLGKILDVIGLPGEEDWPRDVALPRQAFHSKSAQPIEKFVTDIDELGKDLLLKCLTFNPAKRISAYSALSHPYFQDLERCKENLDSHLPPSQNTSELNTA
Sequence of CDK6/cyclinD3 (P30281 whole entry partner): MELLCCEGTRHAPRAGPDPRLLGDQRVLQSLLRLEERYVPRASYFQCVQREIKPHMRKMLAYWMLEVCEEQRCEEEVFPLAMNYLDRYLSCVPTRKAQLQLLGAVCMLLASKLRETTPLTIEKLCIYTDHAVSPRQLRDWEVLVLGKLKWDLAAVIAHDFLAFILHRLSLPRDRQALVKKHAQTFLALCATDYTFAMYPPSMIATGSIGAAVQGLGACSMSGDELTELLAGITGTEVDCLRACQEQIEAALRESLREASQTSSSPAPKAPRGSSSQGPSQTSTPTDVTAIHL
Procedure: as §1

BLK = BLK (Homo sapiens, UniProt P51451); experiment: Kinome profiling BLK; conditions: read-out: Inhibitory activity BLK; for inhibition at 0.1 µM: 100 nM
Sequence of BLK (P51451 whole entry): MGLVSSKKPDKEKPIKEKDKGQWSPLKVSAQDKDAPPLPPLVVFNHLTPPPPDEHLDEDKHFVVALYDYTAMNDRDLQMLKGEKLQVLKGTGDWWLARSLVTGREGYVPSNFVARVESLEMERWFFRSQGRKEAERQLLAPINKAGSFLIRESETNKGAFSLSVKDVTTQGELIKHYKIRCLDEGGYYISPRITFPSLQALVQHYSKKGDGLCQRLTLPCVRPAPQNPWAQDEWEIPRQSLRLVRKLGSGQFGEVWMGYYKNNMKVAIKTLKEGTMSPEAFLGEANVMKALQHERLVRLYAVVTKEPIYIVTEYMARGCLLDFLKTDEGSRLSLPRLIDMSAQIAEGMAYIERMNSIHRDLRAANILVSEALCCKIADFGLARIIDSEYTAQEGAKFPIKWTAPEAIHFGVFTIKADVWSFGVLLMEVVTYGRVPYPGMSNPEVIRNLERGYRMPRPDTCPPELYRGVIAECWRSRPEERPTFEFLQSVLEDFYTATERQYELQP
Procedure: as §1

BRSK2 = target: T1, BRSK2 (Homo sapiens, UniProt Q8IWQ3); experiment: Kinome profiling BRSK2; conditions: read-out: Inhibitory activity BRSK2; for inhibition at 0.1 µM: 100 nM
T1 sequence (Q8IWQ3 1-736): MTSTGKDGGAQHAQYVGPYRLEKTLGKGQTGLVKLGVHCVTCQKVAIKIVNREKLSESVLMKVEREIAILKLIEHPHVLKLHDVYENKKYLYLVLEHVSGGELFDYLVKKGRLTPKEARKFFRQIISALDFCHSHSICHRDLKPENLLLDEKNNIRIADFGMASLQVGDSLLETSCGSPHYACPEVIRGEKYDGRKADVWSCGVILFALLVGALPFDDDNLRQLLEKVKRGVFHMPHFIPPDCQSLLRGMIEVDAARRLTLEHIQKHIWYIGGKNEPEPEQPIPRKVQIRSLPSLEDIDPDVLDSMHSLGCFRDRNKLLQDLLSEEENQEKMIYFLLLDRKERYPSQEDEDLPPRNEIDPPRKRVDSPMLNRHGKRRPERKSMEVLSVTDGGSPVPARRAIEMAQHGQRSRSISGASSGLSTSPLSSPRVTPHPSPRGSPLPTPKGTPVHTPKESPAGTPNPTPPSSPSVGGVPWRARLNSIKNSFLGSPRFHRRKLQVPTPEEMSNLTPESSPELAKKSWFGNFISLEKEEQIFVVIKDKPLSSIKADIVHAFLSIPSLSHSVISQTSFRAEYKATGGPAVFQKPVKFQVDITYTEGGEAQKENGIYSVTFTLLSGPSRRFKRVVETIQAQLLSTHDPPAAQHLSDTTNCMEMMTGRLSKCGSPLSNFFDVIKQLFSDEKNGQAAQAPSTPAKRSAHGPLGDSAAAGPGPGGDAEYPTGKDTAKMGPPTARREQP
Procedure: as §1

TBK1 = target: T2, TBK1 (Homo sapiens, UniProt Q9UHD2); experiment: Kinome profiling TBK1; conditions: read-out: Inhibitory activity TBK1; for inhibition at 0.1 µM: 100 nM
T2 sequence (Q9UHD2 1-729): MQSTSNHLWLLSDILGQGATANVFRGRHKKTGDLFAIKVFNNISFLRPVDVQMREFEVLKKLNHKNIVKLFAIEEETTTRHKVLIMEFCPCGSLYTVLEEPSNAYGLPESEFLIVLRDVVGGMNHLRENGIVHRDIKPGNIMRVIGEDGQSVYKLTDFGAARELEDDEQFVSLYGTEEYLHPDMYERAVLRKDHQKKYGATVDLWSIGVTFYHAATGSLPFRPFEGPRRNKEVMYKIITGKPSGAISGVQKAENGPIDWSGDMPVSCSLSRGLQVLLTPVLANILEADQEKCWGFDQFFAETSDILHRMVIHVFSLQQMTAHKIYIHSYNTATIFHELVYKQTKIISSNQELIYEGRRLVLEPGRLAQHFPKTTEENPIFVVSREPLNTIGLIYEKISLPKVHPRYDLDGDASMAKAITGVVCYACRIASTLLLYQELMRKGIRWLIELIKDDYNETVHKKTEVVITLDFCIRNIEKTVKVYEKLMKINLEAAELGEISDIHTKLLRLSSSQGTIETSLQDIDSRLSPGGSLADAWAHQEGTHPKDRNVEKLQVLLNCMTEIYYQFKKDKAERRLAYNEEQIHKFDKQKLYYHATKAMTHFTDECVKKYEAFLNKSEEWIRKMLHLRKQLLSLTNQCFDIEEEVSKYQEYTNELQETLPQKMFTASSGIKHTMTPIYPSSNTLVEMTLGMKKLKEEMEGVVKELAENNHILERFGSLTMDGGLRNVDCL
Procedure: as §1

RET = RET (Homo sapiens, UniProt P07949); experiment: Kinome profiling RET; conditions: read-out: Inhibitory activity RET; for inhibition at 0.1 µM: 100 nM
Sequence of RET (P07949 29-1114): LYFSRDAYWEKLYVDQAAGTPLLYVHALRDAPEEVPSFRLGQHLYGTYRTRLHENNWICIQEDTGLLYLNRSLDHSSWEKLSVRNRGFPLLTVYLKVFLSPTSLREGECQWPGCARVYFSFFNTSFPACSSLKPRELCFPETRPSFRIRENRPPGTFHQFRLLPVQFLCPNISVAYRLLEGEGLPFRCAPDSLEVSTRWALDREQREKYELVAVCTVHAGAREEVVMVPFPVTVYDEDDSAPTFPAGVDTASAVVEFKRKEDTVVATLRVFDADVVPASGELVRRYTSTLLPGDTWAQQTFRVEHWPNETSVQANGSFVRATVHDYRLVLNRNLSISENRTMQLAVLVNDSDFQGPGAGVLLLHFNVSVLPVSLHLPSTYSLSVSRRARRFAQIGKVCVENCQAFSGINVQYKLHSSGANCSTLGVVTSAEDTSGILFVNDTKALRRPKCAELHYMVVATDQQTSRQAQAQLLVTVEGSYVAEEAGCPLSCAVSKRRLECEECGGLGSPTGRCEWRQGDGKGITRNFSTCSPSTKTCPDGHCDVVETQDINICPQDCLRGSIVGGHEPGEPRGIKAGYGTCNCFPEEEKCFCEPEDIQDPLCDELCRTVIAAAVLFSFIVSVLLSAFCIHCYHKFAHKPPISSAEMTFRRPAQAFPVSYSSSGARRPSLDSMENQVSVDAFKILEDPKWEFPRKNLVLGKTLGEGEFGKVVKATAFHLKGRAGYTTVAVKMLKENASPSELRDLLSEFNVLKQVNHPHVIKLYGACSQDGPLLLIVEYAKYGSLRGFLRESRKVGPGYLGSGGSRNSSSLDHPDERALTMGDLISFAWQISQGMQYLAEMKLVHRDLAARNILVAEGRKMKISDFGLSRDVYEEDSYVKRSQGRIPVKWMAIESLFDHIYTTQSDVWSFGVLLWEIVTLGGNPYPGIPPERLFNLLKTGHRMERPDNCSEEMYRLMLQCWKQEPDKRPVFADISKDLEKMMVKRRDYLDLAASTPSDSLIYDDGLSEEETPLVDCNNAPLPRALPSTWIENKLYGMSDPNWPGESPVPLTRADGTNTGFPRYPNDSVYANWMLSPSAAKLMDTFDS
Procedure: as §1

CDK5/p35 = CDK5/p35 (Homo sapiens, UniProt Q00535); experiment: Kinome profiling CDK5/p35; conditions: read-out: Inhibitory activity CDK5/p35; for inhibition at 0.1 µM: 100 nM
Sequence of CDK5/p35 (Q00535 whole entry): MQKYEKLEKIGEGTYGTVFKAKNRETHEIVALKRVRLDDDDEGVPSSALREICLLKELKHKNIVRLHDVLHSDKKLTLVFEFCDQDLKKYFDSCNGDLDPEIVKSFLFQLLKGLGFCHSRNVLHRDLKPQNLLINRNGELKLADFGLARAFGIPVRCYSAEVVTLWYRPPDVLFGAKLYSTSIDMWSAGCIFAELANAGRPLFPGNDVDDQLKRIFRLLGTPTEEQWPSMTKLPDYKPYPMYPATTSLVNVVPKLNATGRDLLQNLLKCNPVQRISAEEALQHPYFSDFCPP
Sequence of CDK5/p35 (Q15078 whole entry partner): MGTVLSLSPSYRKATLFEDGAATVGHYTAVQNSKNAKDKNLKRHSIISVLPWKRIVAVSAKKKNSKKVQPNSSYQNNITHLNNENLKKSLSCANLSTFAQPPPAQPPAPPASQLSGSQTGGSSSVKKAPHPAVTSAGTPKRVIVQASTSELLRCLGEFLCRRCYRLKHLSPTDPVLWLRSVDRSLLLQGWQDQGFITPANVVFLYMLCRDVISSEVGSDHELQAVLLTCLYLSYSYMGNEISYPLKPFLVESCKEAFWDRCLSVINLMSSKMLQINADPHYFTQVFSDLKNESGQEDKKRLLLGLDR
Procedure: as §1

FGR = FGR (Homo sapiens, UniProt P09769); experiment: Kinome profiling FGR; conditions: read-out: Inhibitory activity FGR; for inhibition at 0.1 µM: 100 nM
Sequence of FGR (P09769 whole entry): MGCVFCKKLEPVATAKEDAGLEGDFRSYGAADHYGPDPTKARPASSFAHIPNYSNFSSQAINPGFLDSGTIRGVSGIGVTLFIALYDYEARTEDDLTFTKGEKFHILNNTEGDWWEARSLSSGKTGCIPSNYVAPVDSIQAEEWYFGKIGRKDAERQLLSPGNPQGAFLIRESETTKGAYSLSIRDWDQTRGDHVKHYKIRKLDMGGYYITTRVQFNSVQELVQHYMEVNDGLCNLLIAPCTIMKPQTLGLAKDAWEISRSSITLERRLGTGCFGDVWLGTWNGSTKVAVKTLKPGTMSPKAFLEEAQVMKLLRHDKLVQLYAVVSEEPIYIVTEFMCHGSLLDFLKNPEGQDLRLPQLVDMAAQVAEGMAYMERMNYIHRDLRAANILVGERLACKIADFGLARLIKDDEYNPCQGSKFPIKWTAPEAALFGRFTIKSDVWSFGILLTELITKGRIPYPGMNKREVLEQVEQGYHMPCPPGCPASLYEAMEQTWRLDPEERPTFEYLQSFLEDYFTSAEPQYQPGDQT
Procedure: as §1

Sequence of PIM-2 (Q9P1W9 whole entry): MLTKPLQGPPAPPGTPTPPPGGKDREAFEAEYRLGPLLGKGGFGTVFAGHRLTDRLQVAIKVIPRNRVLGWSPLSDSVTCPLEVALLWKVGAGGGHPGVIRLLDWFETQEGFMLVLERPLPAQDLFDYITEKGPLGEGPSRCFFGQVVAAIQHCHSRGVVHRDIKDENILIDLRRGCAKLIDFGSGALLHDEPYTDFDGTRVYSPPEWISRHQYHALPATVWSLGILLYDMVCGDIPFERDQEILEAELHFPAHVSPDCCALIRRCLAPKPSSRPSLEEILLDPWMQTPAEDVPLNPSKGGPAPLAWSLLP

Structure (SMILES) | inhibition at 0.1 µM (PIM-2) | inhibition at 1 µM (PIM-2) | inhibition at 0.1 µM (CDK6/cyclinD3) | inhibition at 1 µM (CDK6/cyclinD3) | inhibition at 0.1 µM (BLK) | inhibition at 1 µM (BLK) | inhibition at 0.1 µM (BRSK2) | inhibition at 1 µM (BRSK2) | inhibition at 0.1 µM (TBK1) | inhibition at 1 µM (TBK1) | inhibition at 0.1 µM (RET) | inhibition at 1 µM (RET) | inhibition at 0.1 µM (CDK5/p35) | inhibition at 1 µM (CDK5/p35) | inhibition at 0.1 µM (FGR) | inhibition at 1 µM (FGR)
COc1cc(-c2cc(-c3ccc(N4CCNCC4)cc3)cnc2C)cc(OC)c1OC [Compound 10, 1-(4-(6-methyl-5-(3,4,5-trimethoxyphenyl)pyridin-3-yl)phenyl)piperazine] | 0% | 0% | 3% | 1% | 1% | 12% | 2% | 1% | 1% | 4% | 2% | 2% | 2% | 2% | 9% | 36%
COc1cc(-c2cc(-c3ccc(N4CCNCC4)cc3)cnc2N)cc(OC)c1OC [Compound 15, 5-(4-(piperazin-1-yl)phenyl)-3-(3,4,5-trimethoxyphenyl)pyridin-2-amine] | 0% | 0% | 3% | 6% | 16% | 64% | 1% | 2% | 6% | 23% | 8% | 8% | 0% | 0% | 36% | 76%
